Converted amounts (≈) assume the structure as drawn.
Key:
[1] = tested on: Streptococcus iniae; experiment: Antibacterial activity against Streptococcus iniae SC41992 assessed as bacterial growth inhibition by broth microdilution method; type: functional
[2] = tested on: Staphylococcus aureus; experiment: Antibacterial activity against methicillin-resistant Staphylococcus aureus SC41993 assessed as bacterial growth inhibition by broth microdilution method; type: functional
[3] = tested on: Escherichia coli; experiment: Antibacterial activity against Escherichia coli ATCC 25922 assessed as bacterial growth inhibition by broth microdilution method; type: functional
[4] = tested on: Micrococcus luteus; experiment: Antibacterial activity against Micrococcus luteus SC41991 assessed as bacterial growth inhibition by broth microdilution method; type: functional
[5] = tested on: Pseudomonas aeruginosa; experiment: Antibacterial activity against Pseudomonas aeruginosa ATCC 9027 assessed as bacterial growth inhibition by broth microdilution method; type: functional
[6] = tested on: Streptococcus agalactiae; experiment: Antibacterial activity against Streptococcus agalactiae ATCC 13813 assessed as bacterial growth inhibition by broth microdilution method; type: functional
[7] = biological target: T1, Tyrosine-protein phosphatase non-receptor type 1 (Homo sapiens, UniProt P18031); experiment: Inhibition of human PTP1B
T1 sequence (P18031 whole entry): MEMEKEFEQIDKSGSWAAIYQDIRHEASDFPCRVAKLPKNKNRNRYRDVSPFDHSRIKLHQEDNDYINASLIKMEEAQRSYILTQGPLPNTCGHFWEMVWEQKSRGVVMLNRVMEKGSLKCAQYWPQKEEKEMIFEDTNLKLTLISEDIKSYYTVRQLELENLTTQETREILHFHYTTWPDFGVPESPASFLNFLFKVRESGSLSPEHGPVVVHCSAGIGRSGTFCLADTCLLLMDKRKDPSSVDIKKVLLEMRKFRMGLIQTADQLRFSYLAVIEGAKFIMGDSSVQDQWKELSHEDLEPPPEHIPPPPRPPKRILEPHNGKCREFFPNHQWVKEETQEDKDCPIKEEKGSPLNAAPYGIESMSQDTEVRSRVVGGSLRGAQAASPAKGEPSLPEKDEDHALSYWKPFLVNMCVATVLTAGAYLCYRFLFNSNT

[8] = tested on: Dickeya chrysanthemi; experiment: Antibacterial activity against Dickeya chrysanthemi SC41999 assessed as bacterial growth inhibition by broth microdilution method; type: functional
[9] = biological target: Dual specificity protein phosphatase 3 (Homo sapiens, UniProt P51452); experiment: Inhibition of human VHR
[10] = tested on: Bacillus subtilis; experiment: Antibacterial activity against Bacillus subtilis BS01 assessed as bacterial growth inhibition by broth microdilution method; type: functional
[11] = tested on: Staphylococcus aureus; experiment: Antibacterial activity against Staphylococcus aureus ATCC 6538 assessed as bacterial growth inhibition by broth microdilution method; type: functional
[12] = biological target: Receptor-type tyrosine-protein phosphatase F (Homo sapiens, UniProt P10586); experiment: Inhibition of human LAR
[13] = tested on: Paracidovorax citrulli; experiment: Antibacterial activity against Acidovorax citrulli SC42000 assessed as bacterial growth inhibition by broth microdilution method; type: functional
[14] = tested on: Bacillus amyloliquefaciens; experiment: Antibacterial activity against Bacillus amyloliquefaciens GDMCC 60233 assessed as bacterial growth inhibition by broth microdilution method; type: functional
[15] = biological target: T2, M-phase inducer phosphatase 2 (Homo sapiens, UniProt P30305); experiment: Inhibition of human CDC25B
T2 sequence (P30305 whole entry): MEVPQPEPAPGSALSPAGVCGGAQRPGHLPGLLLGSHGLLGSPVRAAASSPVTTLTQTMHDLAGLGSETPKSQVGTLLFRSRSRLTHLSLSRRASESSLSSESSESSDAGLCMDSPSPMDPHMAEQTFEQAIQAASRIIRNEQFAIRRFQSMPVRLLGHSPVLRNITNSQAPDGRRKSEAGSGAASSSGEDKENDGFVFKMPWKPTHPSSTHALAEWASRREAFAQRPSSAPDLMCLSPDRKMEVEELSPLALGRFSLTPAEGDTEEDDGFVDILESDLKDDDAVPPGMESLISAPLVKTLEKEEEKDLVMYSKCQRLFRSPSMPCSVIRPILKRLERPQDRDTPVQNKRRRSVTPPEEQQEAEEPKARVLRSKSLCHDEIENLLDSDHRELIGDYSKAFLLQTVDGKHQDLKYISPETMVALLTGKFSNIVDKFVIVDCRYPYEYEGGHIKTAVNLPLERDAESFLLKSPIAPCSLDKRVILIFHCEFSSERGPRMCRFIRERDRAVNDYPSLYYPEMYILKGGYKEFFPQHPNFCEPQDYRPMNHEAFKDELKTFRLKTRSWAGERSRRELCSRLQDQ

[16] = tested on: Candida albicans; experiment: Antifungal activity against Candida albicans assessed as fungal growth inhibition; type: functional
[17] = tested on: HepG2; experiment: Cytotoxicity against human HepG2 cells assessed as cell growth inhibition by CCK8 assay
[18] = tested on: NCI-H1975; experiment: Cytotoxicity against human NCI-H1975 cells assessed as cell growth inhibition by CCK8 assay

Receptor-type tyrosine-protein phosphatase F, sequence (P10586 whole entry): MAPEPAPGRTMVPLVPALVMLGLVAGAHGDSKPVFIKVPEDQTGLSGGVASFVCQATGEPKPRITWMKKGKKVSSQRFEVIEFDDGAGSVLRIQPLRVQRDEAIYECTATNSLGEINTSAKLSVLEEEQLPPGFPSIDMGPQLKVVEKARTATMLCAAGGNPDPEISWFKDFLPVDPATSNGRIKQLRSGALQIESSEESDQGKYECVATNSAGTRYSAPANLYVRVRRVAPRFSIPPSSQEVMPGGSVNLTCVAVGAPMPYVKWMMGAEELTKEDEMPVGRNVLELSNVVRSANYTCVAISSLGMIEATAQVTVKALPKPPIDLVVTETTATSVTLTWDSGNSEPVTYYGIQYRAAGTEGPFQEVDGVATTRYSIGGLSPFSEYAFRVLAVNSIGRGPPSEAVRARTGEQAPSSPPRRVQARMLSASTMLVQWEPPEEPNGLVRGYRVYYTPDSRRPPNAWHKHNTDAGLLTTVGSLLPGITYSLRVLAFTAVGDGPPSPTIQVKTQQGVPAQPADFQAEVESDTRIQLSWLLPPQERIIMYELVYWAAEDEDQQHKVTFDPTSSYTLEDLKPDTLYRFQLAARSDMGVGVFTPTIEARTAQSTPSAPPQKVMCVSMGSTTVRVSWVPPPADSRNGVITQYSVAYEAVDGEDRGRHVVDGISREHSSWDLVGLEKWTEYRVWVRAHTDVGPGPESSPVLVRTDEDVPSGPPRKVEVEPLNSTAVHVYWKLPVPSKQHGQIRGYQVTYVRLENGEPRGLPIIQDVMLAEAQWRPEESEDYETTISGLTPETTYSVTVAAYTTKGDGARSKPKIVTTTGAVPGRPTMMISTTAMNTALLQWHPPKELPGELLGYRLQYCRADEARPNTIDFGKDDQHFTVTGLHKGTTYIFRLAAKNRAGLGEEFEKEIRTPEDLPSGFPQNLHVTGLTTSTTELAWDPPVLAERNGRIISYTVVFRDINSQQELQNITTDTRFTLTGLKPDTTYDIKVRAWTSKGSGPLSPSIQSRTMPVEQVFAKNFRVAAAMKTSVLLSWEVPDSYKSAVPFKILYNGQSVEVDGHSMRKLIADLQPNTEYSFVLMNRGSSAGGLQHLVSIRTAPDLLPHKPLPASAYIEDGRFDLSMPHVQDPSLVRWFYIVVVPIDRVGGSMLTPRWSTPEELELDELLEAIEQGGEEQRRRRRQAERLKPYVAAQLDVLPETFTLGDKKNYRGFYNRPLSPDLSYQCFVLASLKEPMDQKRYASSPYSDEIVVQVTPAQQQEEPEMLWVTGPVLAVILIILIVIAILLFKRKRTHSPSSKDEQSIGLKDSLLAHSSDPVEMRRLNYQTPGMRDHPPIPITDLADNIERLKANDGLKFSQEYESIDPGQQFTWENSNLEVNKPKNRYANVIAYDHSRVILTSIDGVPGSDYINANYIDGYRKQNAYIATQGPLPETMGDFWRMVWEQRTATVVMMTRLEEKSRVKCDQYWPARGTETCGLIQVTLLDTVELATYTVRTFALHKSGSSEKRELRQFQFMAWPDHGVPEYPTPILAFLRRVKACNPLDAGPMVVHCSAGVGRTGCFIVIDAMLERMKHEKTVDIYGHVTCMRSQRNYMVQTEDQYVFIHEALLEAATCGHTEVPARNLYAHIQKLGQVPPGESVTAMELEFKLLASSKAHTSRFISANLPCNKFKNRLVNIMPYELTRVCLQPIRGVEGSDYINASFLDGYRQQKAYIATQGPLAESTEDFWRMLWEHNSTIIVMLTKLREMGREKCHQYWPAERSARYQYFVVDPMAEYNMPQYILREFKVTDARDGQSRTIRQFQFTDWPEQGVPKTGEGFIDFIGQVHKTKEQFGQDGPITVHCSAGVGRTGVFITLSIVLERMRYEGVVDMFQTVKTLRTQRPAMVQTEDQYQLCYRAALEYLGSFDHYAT
Dual specificity protein phosphatase 3, sequence (P51452 whole entry): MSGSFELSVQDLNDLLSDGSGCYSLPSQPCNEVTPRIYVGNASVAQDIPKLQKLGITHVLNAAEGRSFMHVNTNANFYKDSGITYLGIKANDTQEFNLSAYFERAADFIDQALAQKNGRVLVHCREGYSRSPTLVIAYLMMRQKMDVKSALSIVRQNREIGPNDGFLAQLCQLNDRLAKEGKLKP

Row | Molecule | MIC [1] [µg/mL] | MIC [2] [µg/mL] | MIC [3] [µg/mL] | MIC [4] [µg/mL] | MIC [5] [µg/mL] | MIC [6] [µg/mL] | IC50 [7] [µM] | MIC [8] [µg/mL] | IC50 [9] [µM] | MIC [10] [µg/mL] | MIC [11] [µg/mL] | IC50 [12] [µM] | MIC [13] [µg/mL] | MIC [14] [µg/mL] | IC50 [15] [µM] | MIC [16] [µg/mL] | IC50 [17] [µM] | IC50 [18] [µM]
1 | CC1=C[C@@]2(C)C(=C(C)[C@H]3[C@@H]4C[C@H](C)C[C@H](C)[C@H]4[C@H]4Oc5ccc(cc5)C[C@@H]5C(=O)NC(=O)[C@H]5C(=O)[C@H]2[C@@H]43)[C@H]1C | 12.5 (≈ 23.7 µM) | 13 (≈ 24.6 µM) | 25 (≈ 47.4 µM) | 25 (≈ 47.4 µM) | > 100 | 25 (≈ 47.4 µM) | 11 | > 100 | > 200 | 13 (≈ 24.6 µM) | 50 (≈ 94.7 µM) | > 200 | > 100 | 100 (≈ 189 µM) | > 200 | > 100 |  | 
2 | CC1=C[C@@]2(C)[C@@H]3C(=O)[C@@]45C(=O)N[C@@](O)(Cc6ccc(cc6)O[C@@H]6[C@H]7[C@@H](C[C@H](C)C[C@@H]7C)[C@H]1[C@H]63)[C@H]4CC=C(C)[C@@H]25 | 100 (≈ 189 µM) | > 100 | 100 (≈ 189 µM) |  |  | 100 (≈ 189 µM) |  |  |  | 100 (≈ 189 µM) | > 100 |  |  | 100 (≈ 189 µM) |  |  |  | 
3 | GENTAMICIN SULFATE | 1.3 | 0.62 | 0.62 |  |  | 0.62 |  | 0.1 |  | 0.62 | 1.3 |  | 0.1 | 0.62 |  |  |  | 
4 | CC1=C[C@@]2(C)C(=C(C)[C@H]3[C@@H]4C[C@H](C)C[C@H](C)[C@H]4[C@H]4Oc5ccc(cc5)C[C@@]5(O)C=C(C(=O)N5)C(=O)[C@H]2[C@@H]43)[C@H]1C | 0.4 (≈ 0.758 µM) | 0.4 (≈ 0.758 µM) | 0.2 (≈ 0.379 µM) | 1.6 (≈ 3.03 µM) | > 100 | 0.4 (≈ 0.758 µM) |  | > 100 |  | 0.2 (≈ 0.379 µM) | 0.8 (≈ 1.52 µM) |  | > 100 | 0.4 (≈ 0.758 µM) |  | 25 (≈ 47.4 µM) |  | 
5 | CC1=C[C@@]2(C)C(=C(C)[C@H]3[C@@H]4C[C@H](C)C[C@H](C)[C@H]4[C@H]4Oc5ccc(cc5)C[C@@H]5C(=O)NC(=O)[C@H]5C(=O)[C@@H]2[C@@H]43)[C@H]1C | 50 (≈ 94.7 µM) | 25 (≈ 47.4 µM) | 100 (≈ 189 µM) | 13 (≈ 24.6 µM) | > 100 | 50 (≈ 94.7 µM) | > 200 | > 100 | > 200 | 50 (≈ 94.7 µM) | 100 (≈ 189 µM) | > 200 | > 100 | 100 (≈ 189 µM) | > 200 | > 100 |  | 
6 | COC(=O)CC(=O)[C@@H]1[C@H]2[C@H](Oc3ccc(CC(N)=O)cc3)[C@H]3[C@@H](C[C@H](C)C[C@@H]3C)[C@@H]2C(C)=C2[C@@H](C)C(C)=C[C@@]21C | > 100 | > 100 | > 100 |  |  | 100 (≈ 183 µM) |  |  |  | 100 (≈ 183 µM) | > 100 |  |  | 100 (≈ 183 µM) |  |  |  | 
7 | C=C/C(C)=C/[C@]1(C)C=C(C)[C@H]2[C@@H]3C[C@H](C)C[C@H](C)[C@H]3[C@H]3Oc4ccc(cc4)C[C@@H]4C(=O)NC(=O)[C@H]4C(=O)[C@@H]1[C@@H]32 |  | > 100 | 100 (≈ 189 µM) |  |  | 50 (≈ 94.7 µM) |  |  |  | 100 (≈ 189 µM) | > 100 |  |  |  |  |  | > 80 | 67
8 | CC1=C[C@@]2(C)C(=C(C)[C@H]3[C@@H]4C[C@H](C)C[C@H](C)[C@H]4[C@H]4Oc5ccc(cc5)C[C@]5(O)NC(=O)[C@]6(O[C@H]65)C(=O)[C@H]2[C@@H]43)[C@H]1C | 25 (≈ 46 µM) | 25 (≈ 46 µM) | 50 (≈ 92 µM) | 50 (≈ 92 µM) | > 100 | 50 (≈ 92 µM) | 8.7 | > 100 | > 200 | 50 (≈ 92 µM) | 100 (≈ 184 µM) | > 200 | > 100 | 100 (≈ 184 µM) | 6 | > 100 |  | 

— ChEMBL document CHEMBL5385931, “Microascones, Decahydrofluorene-Class Alkaloids from the Marine-Derived Fungus Microascus sp. SCSIO 41821” (J Nat Prod, 2024)
